Legend:
ER-α = biological target: T1, ER-α (Homo sapiens, UniProt P03372); assay: Breast Cancer Cell ER-α In Cell Western Assay (SP1); type: cell-based; conditions: MCF-7 cells, SP1 antibody, 4 or 24 hr post compound addition; for Emax: MCF7, read-out: ER-α In Cell Western Assay (SP1) Max Response; for DC50: read-out: ER-α In Cell Western Assay (SP1) IC50
T1 sequence (P03372 1-595): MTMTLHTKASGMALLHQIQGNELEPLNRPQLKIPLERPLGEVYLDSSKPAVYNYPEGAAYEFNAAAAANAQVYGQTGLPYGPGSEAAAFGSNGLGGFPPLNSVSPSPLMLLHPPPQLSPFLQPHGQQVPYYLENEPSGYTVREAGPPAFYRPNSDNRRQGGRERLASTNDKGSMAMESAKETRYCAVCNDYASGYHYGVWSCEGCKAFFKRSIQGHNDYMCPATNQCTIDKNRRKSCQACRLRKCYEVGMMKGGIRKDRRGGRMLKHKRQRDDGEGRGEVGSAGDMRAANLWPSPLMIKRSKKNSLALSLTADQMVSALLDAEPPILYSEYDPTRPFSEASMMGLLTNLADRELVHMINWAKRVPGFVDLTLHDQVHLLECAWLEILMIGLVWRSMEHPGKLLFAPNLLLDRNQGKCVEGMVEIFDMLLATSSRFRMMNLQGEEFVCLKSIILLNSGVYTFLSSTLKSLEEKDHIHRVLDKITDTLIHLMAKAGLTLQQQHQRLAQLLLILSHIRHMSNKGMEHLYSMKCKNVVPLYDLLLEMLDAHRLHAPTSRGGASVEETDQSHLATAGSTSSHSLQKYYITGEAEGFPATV
Procedure: MCF-7 cells were adjusted to a concentration of 200,000 cells per mL in RPMI containing 10% charcoal-stripped FBS and 20 mM HEPES. 16 microliters of the cell suspension (3200 cells) was added to each well of a poly-D-lysine 384 well plate, and the cells were incubated overnight to allow the cells to adhere. The following day an eleven point, serial semilog dilution of each compound was added to the cells in 16 μL at a final concentration ranging from 0.3-0.000003 μM. At 4 or 24 hr post compound addition, the cells were fixed (10% formalin in PBS) for 20 minutes. Cells were permeablized in PBS 0.1% Triton and blocked with LICOR blocking buffer (50 μL1/well, 90′). The wells were then incubated overnight at 4° C. with SP1 rabbit monoclonal Ab (Thermo Scientific) diluted 1:1000 in LICOR blocking buffer/0.1% Tween-20. Wells which were treated with blocking buffer with Tween but no antibody were used as a background control. Wells were washed with 0.1% Tween-20/PBS and then incubated in goat anti-rabbit IRDye™ 800CW (LICOR Inc.; 1:1000) and DRAQ5 DNA dye (1:2000 for 2 mM stock) diluted in LICOR blocking buffer containing 0.1% Tween-20 and 0.01% SDS for 60 minutes. Cells were washed (50 μl/well, 5′ each) in 0.1% Tween-20/PBS. Plates were scanned on a LICOR Odyssey infrared imaging system. Integrated intensities in the 800 nm channel and 700 nm channel were measured to determine levels of ER and DNA respectively. Percent ER levels were determined as follows: (Integrated intensity 800 nm sample/integrated intensity 700 nm sample)/(Integrated intensity 800 nm untreated cells/integrated intensity 700 nm untreated cells)×100=% ER levels.

MCF-7 cells = assay: Breast Cancer Cell Viability Assay (MCF-7, CellTiter-Glo); type: cell-based; conditions: 5 days' compound exposure; for IC50: Homo sapiens, MCF7, 120 h
Procedure: MCF-7 cells were adjusted to a concentration of 20,000 cells per mL in RPMI containing 10% FBS and 20 mM HEPES. 16 microliters of the cell suspension (320 cells) was added to each well of a 384 well plate, and the cells were incubated overnight to allow the cells to adhere. The following day an eleven point, serial semilog dilution of each compound was added to the cells in 16 μL at a final concentration ranging from 0.3-0.000003 μM. After 5 days' compound exposure, 16 μL of CellTiter-GLo (Promega, Madison Wis.) was added to the cells the relative luminescence units (RLUs) of each well was determined CellTiter-Glo added to 32 μL of medium without cells was used to obtain a background value. The Percent viability of each sample was determined as follows: (RLU sample-RLU background/RLU untreated cells-RLU background)×100=% viability.

| SMILES | Emax (ER-α) [%] | DC50 (ER-α) [nM] | MCF7 Viability Assay Max Response (MCF-7 cells) | IC50 (MCF-7 cells) [nM] |
| --- | --- | --- | --- | --- |
| CC/C(=C(/c1ccc(/C=C/C(=O)O)cc1)c1ccc2[nH]ncc2c1)c1ccc(C(F)(F)F)cc1C#N [Compound 139, (E)-3-(4-((E)-2-(2-Cyano-4-(trifluoromethyl)phenyl)-1-(1H-indazol-5-yl)but-1-en-1-yl)phenyl)acrylic acid] | ≥ 40 | ≤ 100 | ++ (++ = a single % value ≧ 40%) | ≤ 100 |
| COCC/C(=C(/c1ccc(/C=C/C(=O)O)cc1)c1ccc2[nH]ncc2c1)c1ccccc1 [Compound 47, (E)-3-(4-((E)-1-(1H-Indazol-5-yl)-4-methoxy-2-phenylbut-1-en-1-yl)phenyl)acrylic acid] | ≥ 40 | ≤ 100 | ++ (++ = a single % value ≧ 40%) | ≤ 100 |
| CC/C(=C(/c1ccc(/C=C/C(=O)O)cc1)c1cc2cn[nH]c2cc1Cl)c1ccccc1 [Compound 50, (E)-3-(4-((E)-1-(6-Chloro-1H-indazol-5-yl)-2-phenylbut-1-en-1-yl)phenyl)acrylic acid] | ≥ 40 | ≤ 100 | ++ (++ = a single % value ≧ 40%) | ≤ 100 |
| CC/C(=C(/c1ccc(/C=C/C(=O)O)cc1)c1ccc2[nH]ncc2c1)c1ccccc1O [Compound 94, (E)-3-(4-((E)-2-(2-Hydroxyphenyl)-1-(1H-indazol-5-yl)but-1-en-1-yl)phenyl)acrylic acid] | ≥ 40 | ≤ 100 | ++ (++ = a single % value ≧ 40%) | > 100 |
| CC/C(=C(/c1ccc(/C=C/C(=O)O)cc1)c1ccc2[nH]ncc2c1F)c1ccc(Cl)cc1Cl [Compound 118, (E)-3-(4-((E)-2-(2,4-Dichlorophenyl)-1-(4-fluoro-1H-indazol-5-yl)but-1-en-1-yl)phenyl)acrylic acid] | ≥ 40 | ≤ 100 | ++ (++ = a single % value ≧ 40%) | ≤ 100 |
| CC/C(=C(/c1ccc(/C=C/C(=O)O)cc1)c1ccc2[nH]ncc2c1)c1ccccc1C [Compound 9, (E)-3-(4-((E)-1-(1H-Indazol-5-yl)-2-(o-tolyl)but-1-en-1-yl)phenyl)acrylic acid] | ≥ 40 | – | ++ (++ = a single % value ≧ 40%) | ≤ 100 |
| CC/C(=C(/c1ccc(/C=C/C(=O)O)cc1)c1ccc2c(cnn2C)c1)c1ccc(F)cc1Cl [Compound 147, (E)-3-(4-((E)-2-(2-Chloro-4-fluorophenyl)-1-(1-methyl-1H-indazol-5-yl)but-1-en-1-yl)phenyl)acrylic acid] | ≥ 40 | ≤ 100 | ++ (++ = a single % value ≧ 40%) | ≤ 100 |
| O=C(O)/C=C/c1ccc(/C(=C(/CCF)c2ccc(F)cc2)c2ccc3[nH]ncc3c2)cc1 [Compound 78, (E)-3-(4-((E)-4-Fluoro-2-(4-fluorophenyl)-1-(1H-indazol-5-yl)but-1-en-1-yl)phenyl)acrylic acid] | ≥ 40 | ≤ 100 | ++ (++ = a single % value ≧ 40%) | ≤ 100 |
| CC/C(=C(/c1ccc(/C=C/C(=O)O)cc1)c1ccc2[nH]ncc2c1)c1ccc(Cl)cc1C(F)(F)F [Compound 114, (E)-3-(4-((E)-2-(4-Chloro-2-(trifluoromethyl)phenyl)-1-(1H-indazol-5-yl)but-1-en-1-yl)phenyl)acrylic acid] | ≥ 40 | ≤ 100 | ++ (++ = a single % value ≧ 40%) | ≤ 100 |
| CC/C(=C(/c1ccc(/C=C/C(=O)O)c(F)c1)c1ccc2[nH]ncc2c1)c1ccccc1 [Compound 106, (E)-3-(4-((Z)-1-(1H-Indazol-5-yl)-2-phenylbut-1-en-1-yl)-2-fluorophenyl)acrylic acid] | ≥ 40 | ≤ 100 | ++ (++ = a single % value ≧ 40%) | ≤ 100 |
| O=C(O)/C=C/c1ccc(/C(=C(\c2ccc(F)cc2Cl)C(F)F)c2ccc3[nH]ncc3c2)cc1 [Compound 74, (E)-3-(4-((Z)-2-(2-Chloro-4-fluorophenyl)-3,3-difluoro-1-(1H-indazol-5-yl)prop-1-en-1-yl)phenyl)acrylic acid] | ≥ 40 | ≤ 100 | ++ (++ = a single % value ≧ 40%) | ≤ 100 |
| CC/C(=C(/c1ccc(/C=C/C(=O)O)cc1)c1cc(Cl)c2[nH]ncc2c1)c1ccccc1 [Compound 35, (E)-3-(4-((E)-1-(7-Chloro-1H-indazol-5-yl)-2-phenylbut-1-en-1-yl)phenyl)acrylic acid] | ≥ 40 | ≤ 100 | ++ (++ = a single % value ≧ 40%) | ≤ 100 |
| Cc1cc(F)ccc1/C(=C(\c1ccc(/C=C/C(=O)O)cc1)c1ccc2[nH]ncc2c1F)C1CC1 [Compound 71, (E)-3-(4-((E)-2-Cyclopropyl-1-(4-fluoro-1H-indazol-5-yl)-2-(4-fluoro-2-methylphenyl)vinyl)phenyl)acrylic acid] | ≥ 40 | ≤ 100 | ++ (++ = a single % value ≧ 40%) | ≤ 100 |
| CCOC(=O)/C=C/c1ccc(/C(=C(/CC)c2ccccc2)c2ccc3[nH]ncc3c2)cc1 [Compound 1, (E)-Ethyl 3-(4-((E)-1-(1H-indazol-5-yl)-2-phenylbut-1-en-1-yl)phenyl)acrylate] | ≥ 40 | ≤ 100 | + (+ = a single % value < 40%) | ≤ 100 |
| CC/C(=C(/c1ccc(/C=C/C(=O)O)cc1)c1ccc2[nH]ncc2c1)c1ccccc1C#N [Compound 21, (E)-3-(4-((E)-2-(2-Cyanophenyl)-1-(1H-indazol-5-yl)but-1-en-1-yl)phenyl)acrylic acid] | ≥ 40 | – | ++ (++ = a single % value ≧ 40%) | ≤ 100 |
| CC/C(=C(/c1ccc(/C=C(\C)C(=O)O)cc1)c1ccc2[nH]ncc2c1)c1ccccc1 [Compound 99, (E)-3-(4-((E)-1-(1H-Indazol-5-yl)-2-phenylbut-1-en-1-yl)phenyl)-2-methylacrylic acid] | ≥ 40 | ≤ 100 | ++ (++ = a single % value ≧ 40%) | ≤ 100 |
| CC/C(=C(/c1ccc(/C=C/C(=O)O)cc1)c1ccc2[nH]ncc2c1)c1ccc(CO)cc1 [Compound 7, (E)-3-(4-((E)-2-(4-(Hydroxymethyl)phenyl)-1-(1H-indazol-5-yl)but-1-en-1-yl)phenyl)acrylic acid] | ≥ 40 | ≤ 100 | ++ (++ = a single % value ≧ 40%) | ≤ 100 |
| O=C(O)/C=C/c1ccc(/C(=C(/CCCl)c2ccc(F)cc2Cl)c2ccc3[nH]ncc3c2F)cc1 [Compound 77, (E)-3-(4-((E)-4-Chloro-2-(2-chloro-4-fluorophenyl)-1-(4-fluoro-1H-indazol-5-yl)but-1-en-1-yl)phenyl)acrylic acid] | ≥ 40 | ≤ 100 | ++ (++ = a single % value ≧ 40%) | ≤ 100 |

From US8455534B2, “Estrogen receptor modulators and uses thereof” (Aragon Pharmaceuticals, Inc., priority 2010, dated 2013)
